Experimental data: patent US20260022142A1, “MACROCYCLIC IMMUNOMODULATORS” (Bristol-Myers Squibb Company, priority 2022, published 2026)
Bridge positions count the residues as written; N and C are the ends. Square brackets hold non-standard residues; d marks the D form. Peptide text beside a SMILES is read from it. * marks the point of attachment. Tyr(3,5-F2) = N[C@@H](Cc1cc(F)c(O)c(F)c1)C(=O)O; Tyr(3-Cl) = N[C@@H](Cc1ccc(O)c(Cl)c1)C(=O)O; Bip = N[C@@H](Cc1ccc(-c2ccccc2)cc1)C(=O)O; Phe(3-CN) = N#Cc1cccc(C[C@H](N)C(=O)O)c1; Phe(3-Me) = Cc1cccc(C[C@H](N)C(=O)O)c1; Phe(4-Me) = Cc1ccc(C[C@H](N)C(=O)O)cc1; mTyr = N[C@@H](Cc1cccc(O)c1)C(=O)O; 4Pal = N[C@@H](Cc1ccncc1)C(=O)O; Cha = N[C@@H](CC1CCCCC1)C(=O)O; dDab = NCC[C@@H](N)C(=O)O; Carboxymethyl = O=C(O)C*; Orn = NCCC[C@H](N)C(=O)O; Aun = NCCCCCCCCCCC(=O)O; Dab = NCC[C@H](N)C(=O)O; Dap = NC[C@H](N)C(=O)O; AEEA = NCCOCCOCC(=O)O; Ac3c = NC1(C(=O)O)CC1

Biological target: T1, PD-1/PD-L1 interaction (PE-labeled human PD-L1-Ig binding to Jurkat cell line over-expressing human PD-1) (Homo sapiens, UniProt Q15116)
T1 construct: expressed in transfected cells; host or cells: Jurkat
Test: Jurkat-PD-1 Cell Binding High-Content Screening Assay (CBA)
Assay type: cell-based
Details: Jurkat cell line over-expressing human PD-1; PE-labeled PD-L1-Ig 20 nM final; read-out: Jurkat hPD1-PDL1 IC50
Summary of the method: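 Jurkat-hPD-1 cells, DMEM/10% FCS; cpd 2 h 37° C; PE-PD-L1-Ig 20 nM final, 1 h; 4% PFA fix + Hoechst 33342, 3× dPBS wash; high-content imaging read-out.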

T1 sequence (Q15116 25-288): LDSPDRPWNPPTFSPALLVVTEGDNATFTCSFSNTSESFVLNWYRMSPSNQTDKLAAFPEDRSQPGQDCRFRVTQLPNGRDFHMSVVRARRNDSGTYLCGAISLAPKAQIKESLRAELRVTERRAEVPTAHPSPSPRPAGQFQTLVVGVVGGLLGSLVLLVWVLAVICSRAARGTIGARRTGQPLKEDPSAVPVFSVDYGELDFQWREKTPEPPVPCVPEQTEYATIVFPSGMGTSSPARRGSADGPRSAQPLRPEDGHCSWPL

| SMILES | IC50 |
| --- | --- |
| Cc1cccc(C[C@@H]2NC(=O)[C@H](CC(=O)O)NC(=O)[C@H](Cc3ccc(OCC(=O)O)cc3)NC(=O)[C@H](CN)NC(=O)CSC[C@@H](C(=O)N[C@@H](CCN)C(=O)NCCOCCOCC(=O)NCCCCCCCCCCC(=O)O)NC(=O)[C@H](CCCN)NC(=O)[C@H](C(C)C)NC(=O)[C@H](CC3CCCCC3)NC(=O)[C@H](CCN)NC(=O)[C@@H](CC(C)C)NC(=O)[C@H](CCCN)NC(=O)[C@H](Cc3ccc(O)cc3)NC(=O)[C@H](Cc3ccc(-c4ccccc4)cc3)NC(=O)[C@H](Cc3cccc(C#N)c3)NC2=O)c1 [Compound 2072] ({CH2CO}-[Dap]Y(Carboxymethyl)D[Phe(3-Me)][Phe(3-CN)][Bip]Y[Orn][dL][Dab][Cha]V[Orn]C[Dab][AEEA][Aun]-OH; thioether N-14) | 8.5 nM |
| Cc1cccc(C[C@@H]2NC(=O)[C@H](CC(=O)O)NC(=O)[C@H](Cc3ccc(OCC(=O)O)cc3)NC(=O)[C@H](CN)NC(=O)CSC[C@@H](C(=O)N[C@@H](CCN)C(=O)NCCOCCOCC(=O)NCCCCCCCCCCC(=O)O)NC(=O)[C@H](CCCN)NC(=O)[C@H](C(C)C)NC(=O)[C@H](CC3CCCCC3)NC(=O)[C@H](CCN)NC(=O)[C@@H](CC(C)C)NC(=O)[C@H](CCCN)NC(=O)[C@H](Cc3ccc(O)cc3)NC(=O)[C@H](Cc3ccc(-c4ccccc4)cc3)NC(=O)[C@H](Cc3ccncc3)NC2=O)c1 [Compound 2073] ({CH2CO}-[Dap]Y(Carboxymethyl)D[Phe(3-Me)][4Pal][Bip]Y[Orn][dL][Dab][Cha]V[Orn]C[Dab][AEEA][Aun]-OH; thioether N-14) | 8.9 nM |
| Cc1ccc(C[C@@H]2NC(=O)[C@H](Cc3cccc(C)c3)NC(=O)[C@H](CC(=O)O)NC(=O)[C@H](Cc3ccc(OCC(=O)O)cc3)NC(=O)[C@H](CN)NC(=O)CSC[C@@H](C(=O)N[C@@H](CCN)C(=O)NCCOCCOCC(=O)NCCCCCCCCCCC(=O)O)NC(=O)[C@H](CCCN)NC(=O)[C@H](C(C)C)NC(=O)[C@H](CC3CCCCC3)NC(=O)[C@H](CCN)NC(=O)[C@@H](CC(C)C)NC(=O)[C@H](CCCN)NC(=O)[C@H](Cc3ccc(O)cc3)NC(=O)[C@H](Cc3ccc(-c4ccccc4)cc3)NC2=O)cc1 [Compound 2074] ({CH2CO}-[Dap]Y(Carboxymethyl)D[Phe(3-Me)][Phe(4-Me)][Bip]Y[Orn][dL][Dab][Cha]V[Orn]C[Dab][AEEA][Aun]-OH; thioether N-14) | 5.5 nM |
| Cc1cccc(C[C@@H]2NC(=O)[C@H](CC(=O)O)NC(=O)[C@H](Cc3ccc(OCC(=O)O)cc3)NC(=O)[C@H](CN)NC(=O)CSC[C@@H](C(=O)N[C@@H](CCN)C(=O)NCCOCCOCC(=O)NCCCCCCCCCCC(=O)O)NC(=O)[C@H](CCCN)NC(=O)[C@H](C(C)C)NC(=O)[C@H](CC3CCCCC3)NC(=O)[C@H](CCN)NC(=O)[C@@H](CC(C)C)NC(=O)[C@H](CCCN)NC(=O)[C@H](Cc3ccc(O)cc3)NC(=O)[C@H](Cc3ccc(-c4ccccc4)cc3)NC(=O)[C@H](Cc3ccc(O)c(Cl)c3)NC2=O)c1 [Compound 2075] ({CH2CO}-[Dap]Y(Carboxymethyl)D[Phe(3-Me)][Tyr(3-Cl)][Bip]Y[Orn][dL][Dab][Cha]V[Orn]C[Dab][AEEA][Aun]-OH; thioether N-14) | 14.3 nM |
| Cc1cccc(C[C@@H]2NC(=O)[C@H](CC(=O)O)NC(=O)[C@H](Cc3ccc(OCC(=O)O)cc3)NC(=O)[C@H](CN)NC(=O)CSC[C@@H](C(=O)N[C@@H](CCN)C(=O)NCCOCCOCC(=O)NCCCCCCCCCCC(=O)O)NC(=O)[C@H](CCCN)NC(=O)[C@H](C(C)C)NC(=O)[C@H](CC3CCCCC3)NC(=O)[C@H](CCN)NC(=O)[C@@H](CC(C)C)NC(=O)[C@H](CCCN)NC(=O)[C@H](Cc3ccc(O)cc3)NC(=O)[C@H](Cc3ccc(-c4ccccc4)cc3)NC(=O)[C@H](Cc3cc(F)c(O)c(F)c3)NC2=O)c1 [Compound 2076] ({CH2CO}-[Dap]Y(Carboxymethyl)D[Phe(3-Me)][Tyr(3,5-F2)][Bip]Y[Orn][dL][Dab][Cha]V[Orn]C[Dab][AEEA][Aun]-OH; thioether N-14) | 8.4 nM |
| Cc1cccc(C[C@@H]2NC(=O)[C@H](CC(=O)O)NC(=O)[C@H](Cc3ccc(OCC(=O)O)cc3)NC(=O)[C@H](CN)NC(=O)CSC[C@@H](C(=O)NC3(C(=O)NCCOCCOCC(=O)NCCCCCCCCCCC(=O)O)CC3)NC(=O)[C@H](CCCN)NC(=O)[C@H](C(C)C)NC(=O)[C@H](CC3CCCCC3)NC(=O)[C@H](CCN)NC(=O)[C@@H](CC(C)C)NC(=O)[C@H](CCCN)NC(=O)[C@H](Cc3ccc(O)cc3)NC(=O)[C@H](Cc3ccc(-c4ccccc4)cc3)NC(=O)[C@H](Cc3ccc(O)cc3)NC2=O)c1 [Compound 2077] ({CH2CO}-[Dap]Y(Carboxymethyl)D[Phe(3-Me)]Y[Bip]Y[Orn][dL][Dab][Cha]V[Orn]C[Ac3c][AEEA][Aun]-OH; thioether N-14) | 6.3 nM |
| Cc1cccc(C[C@@H]2NC(=O)[C@H](CC(=O)O)NC(=O)[C@H](Cc3ccc(OCC(=O)O)cc3)NC(=O)[C@H](Cc3ccc(OCC(=O)O)cc3)NC(=O)CSC[C@@H](C(=O)NC3(C(=O)NCCOCCOCC(=O)NCCCCCCCCCCC(=O)O)CC3)NC(=O)[C@H](CCCN)NC(=O)[C@H](C(C)C)NC(=O)[C@H](CC3CCCCC3)NC(=O)[C@H](CCN)NC(=O)[C@@H](CC(C)C)NC(=O)[C@H](CCCN)NC(=O)[C@H](Cc3ccc(O)cc3)NC(=O)[C@H](Cc3ccc(-c4ccccc4)cc3)NC(=O)[C@H](Cc3ccc(O)cc3)NC2=O)c1 [Compound 2078] ({CH2CO}-Y(Carboxymethyl)Y(Carboxymethyl)D[Phe(3-Me)]Y[Bip]Y[Orn][dL][Dab][Cha]V[Orn]C[Ac3c][AEEA][Aun]-OH; thioether N-14) | 3.9 nM |
| CC(C)C[C@H]1NC(=O)[C@H](CCCN)NC(=O)[C@H](Cc2ccc(O)cc2)NC(=O)[C@H](Cc2ccc(-c3ccccc3)cc2)NC(=O)[C@H](Cc2ccc(O)cc2)NC(=O)[C@H](Cc2cccc(O)c2)NC(=O)[C@H](CC(=O)O)NC(=O)[C@H](Cc2ccc(OCC(=O)O)cc2)NC(=O)[C@H](CN)NC(=O)CSC[C@@H](C(=O)N[C@@H](CCN)C(=O)NCCCCCCCCCCC(=O)O)NC(=O)[C@@H](CCN)NC(=O)[C@H](C(C)C)NC(=O)[C@H](CC2CCCCC2)NC(=O)[C@H](CCN)NC1=O [Compound 2079] ({CH2CO}-[Dap]Y(Carboxymethyl)D[mTyr]Y[Bip]Y[Orn][dL][Dab][Cha]V[dDab]C[Dab][Aun]-OH; thioether N-14) | 245 nM |
| CC(C)C[C@H]1NC(=O)[C@H](CCN)NC(=O)[C@H](Cc2ccc(O)cc2)NC(=O)[C@H](Cc2ccc(-c3ccccc3)cc2)NC(=O)[C@H](Cc2ccc(O)cc2)NC(=O)[C@H](Cc2cccc(O)c2)NC(=O)[C@H](CC(=O)O)NC(=O)[C@H](Cc2ccc(OCC(=O)O)cc2)NC(=O)[C@H](CN)NC(=O)CSC[C@@H](C(=O)N[C@@H](CCN)C(=O)NCCCCCCCCCCC(=O)O)NC(=O)[C@@H](CCN)NC(=O)[C@H](C(C)C)NC(=O)[C@H](CC2CCCCC2)NC(=O)[C@H](CCN)NC1=O [Compound 2080] ({CH2CO}-[Dap]Y(Carboxymethyl)D[mTyr]Y[Bip]Y[Dab][dL][Dab][Cha]V[dDab]C[Dab][Aun]-OH; thioether N-14) | 218 nM |
| Cc1cccc(C[C@@H]2NC(=O)[C@H](CC(=O)O)NC(=O)[C@H](Cc3ccc(OCC(=O)O)cc3)NC(=O)[C@H](CCCNC(=N)N)NC(=O)CSC[C@@H](C(=O)N[C@@H](CCN)C(=O)NCCCCCCCCCCC(=O)O)NC(=O)[C@H]([C@@H](C)O)NC(=O)[C@H](C(C)C)NC(=O)[C@H](CC3CCCCC3)NC(=O)[C@H](CCN)NC(=O)[C@@H](CC(C)C)NC(=O)[C@H](CCCN)NC(=O)[C@H](Cc3ccc(OCC(=O)O)cc3)NC(=O)[C@H](Cc3ccc(-c4ccccc4)cc3)NC(=O)[C@H](Cc3ccc(O)cc3)NC2=O)c1 [Compound 2081] ({CH2CO}-RY(Carboxymethyl)D[Phe(3-Me)]Y[Bip]Y(Carboxymethyl)[Orn][dL][Dab][Cha]VTC[Dab][Aun]-OH; thioether N-14) | 11.7 nM |
| Cc1cccc(C[C@@H]2NC(=O)[C@H](CC(=O)O)NC(=O)[C@H](Cc3ccc(OCC(=O)O)cc3)NC(=O)[C@H](CCCNC(=N)N)NC(=O)CSC[C@@H](C(=O)N[C@@H](CCN)C(=O)NCCCCCCCCCCC(=O)O)NC(=O)[C@H](CO)NC(=O)[C@H](C(C)C)NC(=O)[C@H](CC3CCCCC3)NC(=O)[C@H](CCN)NC(=O)[C@@H](CC(C)C)NC(=O)[C@H](CCCN)NC(=O)[C@H](Cc3ccc(OCC(=O)O)cc3)NC(=O)[C@H](Cc3ccc(-c4ccccc4)cc3)NC(=O)[C@H](Cc3ccc(O)cc3)NC2=O)c1 [Compound 2082] ({CH2CO}-RY(Carboxymethyl)D[Phe(3-Me)]Y[Bip]Y(Carboxymethyl)[Orn][dL][Dab][Cha]VSC[Dab][Aun]-OH; thioether N-14) | 22.7 nM |
| Cc1cccc(C[C@@H]2NC(=O)[C@H](CC(=O)O)NC(=O)[C@H](Cc3ccc(OCC(=O)O)cc3)NC(=O)[C@H](CCCNC(=N)N)NC(=O)CSC[C@@H](C(=O)N[C@@H](CCN)C(=O)NCCCCCCCCCCC(=O)O)NC(=O)[C@H](CO)NC(=O)[C@H](C(C)C)NC(=O)[C@H](CC3CCCCC3)NC(=O)[C@H](CCN)NC(=O)[C@@H](CC(C)C)NC(=O)[C@H](CCCN)NC(=O)[C@H](Cc3ccc(OCC(=O)O)cc3)NC(=O)[C@H](Cc3ccc(-c4ccccc4)cc3)NC(=O)[C@H](Cc3ccc(OCC(=O)O)cc3)NC2=O)c1 [Compound 2083] ({CH2CO}-RY(Carboxymethyl)D[Phe(3-Me)]Y(Carboxymethyl)[Bip]Y(Carboxymethyl)[Orn][dL][Dab][Cha]VSC[Dab][Aun]-OH; thioether N-14) | 8.3 nM |
| Cc1cccc(C[C@@H]2NC(=O)[C@H](CC(=O)O)NC(=O)[C@H](Cc3ccc(OCC(=O)O)cc3)NC(=O)[C@H](CN)NC(=O)CSC[C@@H](C(=O)N[C@@H](CCN)C(=O)NCCCCCCCCCCC(=O)O)NC(=O)[C@H](CO)NC(=O)[C@H](C(C)C)NC(=O)[C@H](CC3CCCCC3)NC(=O)[C@H](CCN)NC(=O)[C@@H](CC(C)C)NC(=O)[C@H](CCCN)NC(=O)[C@H](Cc3ccc(OCC(=O)O)cc3)NC(=O)[C@H](Cc3ccc(-c4ccccc4)cc3)NC(=O)[C@H](Cc3ccc(OCC(=O)O)cc3)NC2=O)c1 [Compound 2084] ({CH2CO}-[Dap]Y(Carboxymethyl)D[Phe(3-Me)]Y(Carboxymethyl)[Bip]Y(Carboxymethyl)[Orn][dL][Dab][Cha]VSC[Dab][Aun]-OH; thioether N-14) | 12.6 nM |
